“Also recorded” adds a separate entry of the source. Where two headings read alike, the source gives them in different places.
What was measured:
[1] = target: CHO cells expressing TRPV1 (CHO-rTRPV1) (Rattus norvegicus, UniProt O35433); assay: Intracellular Ca2+ imaging, agonist and antagonist added simultaneously; type: cell-based
Protocol: The stable CHO cell clone expressing rTRPV1 (Tet-Off) was the generous gift of James E. Krause and Daniel N. Cortwright (Neurogen Corp., Branford, Conn., USA). These cells were cultured in maintaining medium (HAM F-12 supplemented with 10% FBS (USA sourced, Atlanta biologicals, Lawrenceville, Ga., USA), 25 mM HEPES, pH 7.5, 250 μg/ml geneticin (F-12, HEPES, and geneticin are from Invitrogen, Carlsbad, Calif., USA) and 1 mg/L tetracycline (Calbiochem, La Jolla, Calif., USA).
CHO-rTRPV1 cells were seeded on 25 mm round glass coverslips in 35×10 mm tissue culture dishes in maintaining medium. After 24 hours, the medium was replaced with inducing medium (maintaining medium without geneticin and tetracycline, but containing 1 mM sodium butyrate) to induce TRPV1 expression. Experiments were performed approximately 24 hours after induction. For fura-2 AM (Invitrogen, Carlsbad, Calif., USA) loading, the cells were incubated in DPBS containing calcium and magnesium (Invitrogen, Carlsbad, Calif., USA), 0.5 mg/ml BSA (Sigma, St. Louis, Mo., USA), and 5 μM Fura-2 AM for 2 hours in the dark at 20° C. After 2 hours, the loaded cells were washed 2× with DPBS without calcium and magnesium and immersed in maintaining medium until the measurements. The measurements were carried out in DPBS containing calcium and magnesium, plus 0.5 mg/ml BSA. The fluorescence of individual cells treated simultaneously with a single dose of agonist and antagonist was measured with an InCyt Im2 fluorescence imaging system (Intracellular Imaging, Cincinnati, Ohio, USA). The cells within the selected field were illuminated alternately at 340 and 380 nm. Emitted light >510 nm was measured. To determine the approximate intracellular Ca^2+ concentrations, the system was calibrated using a fura-2 calibration kit (Invitrogen, Carlsbad, Calif., USA). Data were analyzed with the Incyt software and tabulated with Microsoft Excel spreadsheet and graphed with Origin 6.0 (OriginLab Corp., Northhampton, Mass., USA) software.
The TRPV1 agonist and antagonist were added simultaneously to fura-2 AM loaded CHO-rTRPV1 cells after 90 seconds from the beginning of the measurement (baseline) and monitored continuously for an additional 10 minutes. Inhibition values were compared to the maximally effective dose of capsaicin (300 nM) in the same experiment (see FIGS. 2A-2E) or to the indicated concentration of capsaicin (see FIGS. 3A-3E). Experiments were performed three times, each on different days with approximately 30-49 cells measured.

subjects = conditions: cited from earlier work

Chain of CHO cells expressing TRPV1 (CHO-rTRPV1) (O35433 whole entry): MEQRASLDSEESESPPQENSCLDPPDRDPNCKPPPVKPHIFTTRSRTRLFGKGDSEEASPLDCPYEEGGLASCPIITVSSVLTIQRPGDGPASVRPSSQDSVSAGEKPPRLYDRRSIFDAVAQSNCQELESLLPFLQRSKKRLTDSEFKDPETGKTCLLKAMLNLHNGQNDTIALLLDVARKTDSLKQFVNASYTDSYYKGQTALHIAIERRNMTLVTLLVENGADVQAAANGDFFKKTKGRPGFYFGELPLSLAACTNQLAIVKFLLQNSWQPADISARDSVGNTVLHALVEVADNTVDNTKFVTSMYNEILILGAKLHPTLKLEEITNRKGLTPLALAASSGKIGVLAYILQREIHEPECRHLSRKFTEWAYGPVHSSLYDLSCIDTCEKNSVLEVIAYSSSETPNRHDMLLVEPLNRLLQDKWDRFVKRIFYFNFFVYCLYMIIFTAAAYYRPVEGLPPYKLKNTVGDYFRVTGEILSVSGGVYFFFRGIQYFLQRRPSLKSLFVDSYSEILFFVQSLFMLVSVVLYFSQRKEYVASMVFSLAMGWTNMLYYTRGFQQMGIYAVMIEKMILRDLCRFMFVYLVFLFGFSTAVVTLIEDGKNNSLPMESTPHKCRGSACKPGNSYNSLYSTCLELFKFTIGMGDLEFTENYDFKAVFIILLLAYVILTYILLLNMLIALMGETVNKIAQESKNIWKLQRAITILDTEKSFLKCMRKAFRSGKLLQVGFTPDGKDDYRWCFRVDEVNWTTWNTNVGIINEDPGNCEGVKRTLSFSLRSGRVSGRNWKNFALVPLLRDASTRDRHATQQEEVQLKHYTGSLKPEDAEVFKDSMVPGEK

## COc1cc(CNC(=O)CCCC/C=C/C(C)C)ccc1O [capsaicin, trans-8-methyl-N-vanillyl-6-nonenamide]
[1]; CHO cells expressing TRPV1, FIGS. 2A-2E
  intracellular calcium response to agonist: persistent elevation of intracellular calcium
[1]; fura-2 AM loaded CHO-rTRPV1 cells
  maximally effective dose: 300 nM
subjects; at 0.90% concentration, small population of individuals
  proper inflammation: does not achieve proper inflammation
subjects; at 1.45% concentration
  proper inflammation: all subjects achieve proper inflammation
subjects; concentration in spray
  most potent level that can be delivered without potential hazards: 1.45%

## CC(C)(C)c1ccc(/C=C/C(=O)Nc2ccc3c(c2)OCCO3)cc1 [AMG9810]
[1]
  initial response to capsaicin as ratio of antagonist to agonist is raised: decrease in the initial response to capsaicin

## Oc1cc2c(cc1O)CN(C(=S)NCCc1ccc(Cl)cc1)CCC2 [capsazepine]
[1]; FIG. 2D and FIG. 2E
  initial response to capsaicin as ratio of antagonist to agonist is raised: decrease in the initial response to capsaicin

## C=C(C)[C@]12C[C@@H](C)[C@@]34O[C@](Cc5ccccc5)(O[C@@H]1[C@@H]3C=C(COC(=O)Cc1cc(I)c(O)c(OC)c1)C[C@]1(O)C(=O)C(C)=C[C@@H]41)O2 [Iodo-RTX]
[1]; criterion: maximal response to agonist decreased by not more than 20%, response reduced by at least 80% later, FIGS. 2 and 3
  suitability of antagonist combined with capsaicin to give the desired properties: give the desired properties
[1]; criterion: maximal response to agonist decreased by not more than 20%, response reduced by at least 80% later, FIGS. 2 and 3, listed as IodoRTX
  suitability of antagonist combined with capsaicin to give the desired properties: appropriate ratios of antagonist to agonist exist

## CC(C)(C)c1ccc(NC(=O)N2CCN(c3ncccc3Cl)CC2)cc1 [BCTC]
[1]
  suitability of antagonist combined with capsaicin to give the desired properties: appropriate ratios of antagonist to agonist exist; also recorded: give the desired properties

From patent publication US9277748B2, “Agonist/antagonist compositions and methods of use” (The United States of America, as represented by the …, priority 2010, dated 2016)
